In US11459295B2, “2-beta-naphthyl-acetic acid analogs as AKR1C3 inhibitors and methods of using same” (THE TRUSTEES OF THE UNIVERSITY OF PENNSYLVANIA, priority 2015, dated 2022):
Values joined by “and” are separate entries in the source; they are usually repeats but may differ in a detail not shown here. Equal values may be shown once.

Experiments:
[1] = molecular target: T1, AKR1C2 (Homo sapiens (Human), UniProt P52895); experiment: S-tetralol oxidation assay, AKR1C2; assay type: biochemical; conditions: NADP+ dependent oxidation of S-tetralol, S-tetralol at Km; Table 1
T1 sequence (P52895 whole entry): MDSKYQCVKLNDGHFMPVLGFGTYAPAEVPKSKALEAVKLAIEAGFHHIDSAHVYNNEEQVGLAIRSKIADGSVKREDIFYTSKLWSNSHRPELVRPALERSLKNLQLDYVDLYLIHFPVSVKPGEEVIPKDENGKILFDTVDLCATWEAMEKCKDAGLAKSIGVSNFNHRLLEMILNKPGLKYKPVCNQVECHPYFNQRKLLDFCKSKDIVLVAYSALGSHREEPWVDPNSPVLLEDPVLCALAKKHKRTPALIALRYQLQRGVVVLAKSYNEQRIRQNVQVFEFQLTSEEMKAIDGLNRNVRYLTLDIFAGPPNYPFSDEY
Description: Enzyme Purification: Homogenous recombinant enzymes AKR1C1-4 were prepared and purified (Burczynski, et al., 1998, Biochemistry 37:6781-6790). Enzymes were purified to constant specific activity and their purity established by SDS-PAGE. All AKR enzymes were stored at −80° C. in 20 mM potassium phosphate buffer pH 7.0 containing 30% glycerol, 1 mM EDTA, and 1 mM β-mercaptoethanol. Under standard assay conditions, the specific activity of AKR1C1 for the NAD^+ dependent oxidation of 1-acenaphthenol (Sigma) was 2.0 μmol min^−1 mg^−1. The specific activities of AKR1C2 and AKR1C3 for the NAD^+ dependent oxidation of S-tetralol (Sigma) were 1.5 and 2.0 μmol min^−1 mg^−1, respectively, and the specific activity of AKR1C4 for the NAD^+ dependent oxidation of androsterone (Steraloids) was 0.3 μmol min^−1 mg^−1. The specific activities of AKR1C enzymes were determined by measuring the formation of NADH at 340 nm using a Beckman DU640 spectrophotometer. A typical assay solution contained 100 mM potassium phosphate pH 7.0, 2.3 mM NAD^+, 200 μM 1-acenaphthenol for AKR1C1, 3.0 mM Stetralol for AKR1C2 and 1C3, and 75 μM androsterone for AKR1C4, 4% acetonitrile (v/v). The mixtures were incubated at 25° C. (AKR1C1 and 1C4) or 37° C. (AKR1C2 and 1C3) for 3 min, followed by adding a serial dilution of enzyme solution to a final volume of 1 mL to initiate the reaction. After continuously monitoring for 5 min, the increase in UV absorption using different concentrations of enzyme were recorded to calculate the initial velocity of substrate oxidation and determine enzyme-specific activity.
the inhibitory potency of the individual compounds against the AKR1C isoforms was determined by monitoring the NADP^+ dependent oxidation of S-tetralol catalyzed by the AKR1C enzymes using substrate concentrations at their Km values in the presence and absence of varying concentration of the inhibitors (Adeniji, et al., 2012, J Med Chem 55:2311-2323). Reaction systems (200 μL) contained 100 mM potassium phosphate buffer (pH 7.0), 4% DMSO, 200 μM NADP^+, a serial dilution of compounds, S-tetralol, and AKR1C enzymes. […] The concentration of AKR1C1, 1C2, 1C3, and 1C4 was 111, 86, 95, and 552 nM, respectively. Reagents were mixed and incubated at 37° C. for 10 min followed by adding AKR1C enzymes to initiate the reaction. […] To determine the pattern of inhibition, five fixed concentrations of S-tetralol were used and four different concentrations of inhibitor were used and a gobal fit of the equations for COMP, NONCOMP and UNCOMP to the data was applied using Grafit.

[2] = molecular target: COX-2 (Mus musculus, UniProt Q05769); experiment: COX-2 inhibition; assay type: biochemical
Sequence of COX-2 (Q05769 18-604 limits assumed): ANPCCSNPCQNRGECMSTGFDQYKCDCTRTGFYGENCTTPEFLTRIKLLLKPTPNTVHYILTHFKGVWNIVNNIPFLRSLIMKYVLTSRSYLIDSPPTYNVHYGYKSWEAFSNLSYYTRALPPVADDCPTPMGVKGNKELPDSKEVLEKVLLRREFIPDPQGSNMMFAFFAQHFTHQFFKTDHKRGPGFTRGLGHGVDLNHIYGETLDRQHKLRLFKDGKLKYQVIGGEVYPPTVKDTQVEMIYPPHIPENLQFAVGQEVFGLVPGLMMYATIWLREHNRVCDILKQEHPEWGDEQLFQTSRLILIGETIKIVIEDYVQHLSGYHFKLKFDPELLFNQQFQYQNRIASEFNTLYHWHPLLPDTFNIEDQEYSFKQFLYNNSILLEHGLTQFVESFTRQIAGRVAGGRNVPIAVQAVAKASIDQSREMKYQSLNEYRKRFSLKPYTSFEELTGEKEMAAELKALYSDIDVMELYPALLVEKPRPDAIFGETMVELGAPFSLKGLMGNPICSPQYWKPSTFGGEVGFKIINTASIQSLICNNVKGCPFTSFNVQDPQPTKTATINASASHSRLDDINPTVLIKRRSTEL

[3] = molecular target: T2, AKR1C3 (Homo sapiens (Human), UniProt P42330); experiment: S-tetralol oxidation assay, AKR1C3; assay type: biochemical
T2 sequence (P42330 whole entry): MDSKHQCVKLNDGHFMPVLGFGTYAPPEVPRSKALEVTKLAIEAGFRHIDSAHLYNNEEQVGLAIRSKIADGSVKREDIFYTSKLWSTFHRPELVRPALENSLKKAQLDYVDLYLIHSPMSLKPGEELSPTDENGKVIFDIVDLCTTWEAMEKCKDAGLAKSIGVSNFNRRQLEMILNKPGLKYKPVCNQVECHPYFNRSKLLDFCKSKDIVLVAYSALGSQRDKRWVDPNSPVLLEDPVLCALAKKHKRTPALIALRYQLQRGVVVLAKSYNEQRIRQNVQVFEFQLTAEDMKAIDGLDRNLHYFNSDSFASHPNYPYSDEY
Description: Enzymes were purified to constant specific activity and their purity established by SDS-PAGE. All AKR enzymes were stored at −80° C. in 20 mM potassium phosphate buffer pH 7.0 containing 30% glycerol, 1 mM EDTA, and 1 mM β-mercaptoethanol. […] The specific activities of AKR1C enzymes were determined by measuring the formation of NADH at 340 nm using a Beckman DU640 spectrophotometer. […] The mixtures were incubated at 25° C. (AKR1C1 and 1C4) or 37° C. (AKR1C2 and 1C3) for 3 min, followed by adding a serial dilution of enzyme solution to a final volume of 1 mL to initiate the reaction. After continuously monitoring for 5 min, the increase in UV absorption using different concentrations of enzyme were recorded to calculate the initial velocity of substrate oxidation and determine enzyme-specific activity.
Reagents were mixed and incubated at 37° C. for 10 min followed by adding AKR1C enzymes to initiate the reaction. […] To determine the pattern of inhibition, five fixed concentrations of S-tetralol were used and four different concentrations of inhibitor were used and a gobal fit of the equations for COMP, NONCOMP and UNCOMP to the data was applied using Grafit.

[4] = molecular target: COX-1 (Ovis aries (Sheep), UniProt P05979); experiment: COX-1 assay (TMPD oxidation); assay type: biochemical, ram
Sequence of COX-1 (P05979 25-600): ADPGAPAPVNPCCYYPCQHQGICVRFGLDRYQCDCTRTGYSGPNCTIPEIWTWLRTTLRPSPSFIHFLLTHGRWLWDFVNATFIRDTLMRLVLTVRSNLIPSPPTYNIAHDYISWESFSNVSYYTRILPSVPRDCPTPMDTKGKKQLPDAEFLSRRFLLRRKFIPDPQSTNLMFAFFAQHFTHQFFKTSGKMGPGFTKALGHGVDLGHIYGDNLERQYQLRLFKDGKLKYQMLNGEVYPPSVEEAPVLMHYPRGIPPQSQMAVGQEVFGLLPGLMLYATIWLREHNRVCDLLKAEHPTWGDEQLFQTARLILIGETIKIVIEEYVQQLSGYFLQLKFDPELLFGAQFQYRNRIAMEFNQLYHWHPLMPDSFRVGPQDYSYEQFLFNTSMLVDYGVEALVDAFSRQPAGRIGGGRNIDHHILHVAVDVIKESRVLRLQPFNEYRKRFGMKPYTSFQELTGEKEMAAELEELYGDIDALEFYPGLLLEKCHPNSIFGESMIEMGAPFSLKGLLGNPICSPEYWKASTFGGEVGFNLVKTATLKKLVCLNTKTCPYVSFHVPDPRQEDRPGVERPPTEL
Description: The purity of the enzyme was assessed by SDS-PAGE. […] Reagents were mixed and incubated at 25° C. for 5 min followed by adding a mixture of TMPD and arachidonic acid to initiate the reaction. Specific activity was determined based on the initial velocity of the reduction of PGG2 formed in the reaction.
The effect of the compounds on COX-1 activity was determined by a continuous colorimetric assay that monitored the oxidation of N, N, N, N-tetramethyl-1,4-phenylenediamine (TMPD) when coupled to the COX catalyzed formation of PGH2 from PGG2 using arachidonic acid as substrate. […] Reagents were mixed and incubated at 25° C. for 5 min followed by adding a mixture of TMPD and arachidonic acid to initiate the reaction.

[5] = molecular target: AKR1C1 (Homo sapiens (Human), UniProt Q04828); experiment: S-tetralol oxidation assay, AKR1C1; assay type: biochemical
Sequence of AKR1C1 (Q04828 whole entry, looked up): as the sequence (P52895 whole entry) above, with V38T, H47R, V54L, S87C, M151V, H170R, L172Q counted along it

[6] = tested on: LNCaP-AKR1C3 cells; experiment: Radiometric assay of androgen metabolism; assay type: cell-based; conditions: 100 nM Δ4-AD, 30 μM compound, 48 h
Description: LNCaP-AKR1C3 cells seeded at a density of 1.5×10^6 cells were plated in 6 well plates in CSS media. The cells were allowed to incubate for 24 h, after which the media was aspirated and fresh CSS media with 7.5 nM (1.26 μCi) of [^3H] Δ^4-AD and 92.5 nM of cold Δ^4-AD (to obtain a final concentration of 100 nM) was added in the presence and absence of 30 μM of compound 8a in each well. The cells were incubated for 48 h, after which time the media was collected for analysis (Byrns, et al., 2012, J. Steroid. Biochem. & Mol. Biol. 130:7-15). The media was extracted twice with cold ethyl acetate. In order to determine radioactivity of each phase, a portion of each fraction was added to Ultima Gold (Perkin Elmer Life Sciences) scintillation fluid and analyzed on a TriCarb 2100 (Packard Instruments, Perkin Elmer Life Sciences), all CPM counts were blank-adjusted and reported as corrected cpm. The aqueous phases were acidified to pH 6.5 with acetic acid and subjected to treatment with 400 U of E. coli β-glucuronidase at 37° C. for 24 h. The de-conjugated androgens were re-extracted as described elsewhere herein, dried in vacuum and re-dissolved in 100 μL ethyl acetate for separation on the multi-channel LK6D Silica TLC plates. Plates were developed using dichloromethane/ethyl acetate (80:20 v/v) and scanned on the BioScan 200 plate reader.

[7] = tested on: LNCaP-AKR1C3 cells; experiment: Western blot of Δ4-AD induced PSA expression; assay type: cell-based; conditions: 100 nM Δ4-AD, 30 μM compound
Description: LNCaP cells stably expressing AKR1C3 (LNCaP-AKR1C3 cells) (Byrns, et al., 2012, J. Steroid. Biochem. & Mol. Biol. 130:7-15) seeded at a density of 1.5×10^6 cells were plated in 6 cm dishes containing phenol red free RPMI-1640 media supplemented with 5% CDFBS, 1% Pen/Strep and 2 mM L-Glutamine (CSS media). The cells were incubated for 24 h after which media was aspirated and fresh CSS media containing 100 nM Δ^4-AD plus and minus inhibitors. The cells were incubated for 24 h after which they were harvested in RIPA lysis buffer supplemented with protease inhibitors at 4° C. Lysate protein concentration was determined by the Bradford assay using the BIORAD protein dye (Bio-Rad). The samples were subjected to electrophoresis on a 12% SDS-PAGE gel that was subsequently transferred to a nitrocellulose membrane. The membrane was probed with the appropriate antibodies as follows; anti β-tubulin (Millipore, #05-661) anti-PSA (Meridian Life Science, Inc., #K92110R). Blots were imaged using the ECL reagent (Pierce) and GelDoc XR+ System and Image Lab software (Bio-Rad).

[8] = molecular target: T1, AKR1C2; experiment: AKR1C2 catalyzed NADPH dependent reduction of 5α-DHT; assay type: biochemical; conditions: 5α-DHT reduction, <100 μM concentrations
Description: Compounds were tested for their ability to inhibit the AKR1C3 catalyzed, reduction of [^3H]-Δ^4-AD and the AKR1C2 catalyzed reduction of [^3H]-5α-DHT. Compounds were incubated with purified recombinant enzyme and radiolabeled steroid in 100 mM phosphate buffer pH7.0 and 4% DMSO at 37° C. The reaction was initiated by the addition of 1 mM NADPH, aliquots were removed over time and subsequently quenched by the addition of ice cold ethyl acetate. The ethyl acetate fraction was extracted and dried in vacuum. Steroid reference standards and extracts were dissolved in 50 μl ethyl acetate and applied to LK6D Silica TLC plates (Whatman Inc., Clifton, N.J.). TLC plates were developed using a dichloromethane/ethyl acetate (80:20 v/v) solution and were scanned with a Bioscan System 200 plate reader (Washington, D.C.). The percentage of radioactivity in the product peak was calculated assuming that the combined radioactivity in the substrate and product peaks was 100%. Initial velocities were computed by converting the percentage of radioactivity in the product peak by the specific radioactivity of the starting material to generate pmoles/min.

[9] = molecular target: T2, AKR1C3; experiment: AKR1C3 catalyzed reduction of Δ4-AD; assay type: biochemical; conditions: E.NADPH.I complex; read-out: Ki, competitive inhibition of AKR1C3 catalyzed reduction of Δ4-AD
Text: The ethyl acetate fraction was extracted and dried in vacuum.

[10] = NADP+ dependent oxidation of S-tetralol, S-tetralol at Km, Table 1
[11] = highest inhibitor concentration (100 μM) tested

Row | SMILES | IC50 [1] | IC50 [3, 10] [µM] | further results
1 | CCC(C(=O)NS(C)(=O)=O)c1ccc2cc(OC)ccc2c1 (racemic) [LM5885 (±) 7, 2-(6-Methoxynaphthalen-2-yl)-N-(methylsulfonyl)butanamide] | 34 µM |  | 
2 | COc1ccc2cc([C@H](C)C(=O)O)ccc2c1 [S-Naproxen (1), (S)-2-(6-methoxynaphthalen-2-yl)propanoic acid, reference compound] | 1.26 ± 0.15 µM |  | 
3 | CCC(C(=O)O)c1ccc2cc(OC)ccc2c1 (racemic) [LM5750(±) 8, 2-(6-Methoxynaphthalen-2-yl)butanoic Acid] | 7.6 ± 0.95 µM |  | inhibitory activity on COX-2 ([2]; maximum concentration of arachidonic acid tested as substrate (10 μM)): no inhibitory activity; IC50 ([3]; S-tetralol oxidation): 0.12 µM
4 | COc1ccc2cc(C(C)(C)C(=O)O)ccc2c1 [DimethylNaproxen 9, 2-(6-methoxynaphthalen-2-yl)-2-methylpropanoic acid] | 1.32 µM | 0.27 | Ratio IC50 value (AKR1C2/AKR1C3) ([3]; selectivity for AKR1C3 over AKR1C2, Table 1): 5
5 | CC[C@@H](C(=O)O)c1ccc2cc(OC)ccc2c1 [LM5750B 8a, 2(R)-(6-methoxynaphthalen-2-yl)butanoic acid] | 46.4 µM and 48.1 µM | 0.11 ± 0.01 | IC50 ([4]; arachidonic acid as substrate): > 100 µM; inhibition at 100 µM [4, 11]: < 20%; IC50 [5]: 50 µM; production of 3H-testosterone glucuronide [6]: significantly inhibited; Δ4-AD mediated increase in PSA expression [7]: inhibited; inhibition of AKR1C2 [8]: did not display any significant inhibition; Ki ([3]; E.NADP+.I complex, read-out: Ki, competitive inhibition of AKR1C3 catalyzed oxidation of S-tetralol): 0.031 µM; preference for the E.NADP+ complex ([3]; over E.NADPH complex): 20 fold; pattern of AKR1C3 inhibition ([3]; oxidation of S-tetralol): competitively inhibited; Ki [9]: 0.75 µM
6 | CC(C(=O)O)c1ccc2cc(S(C)(=O)=O)ccc2c1 (racemic) [LM5754(±) 6, 2-(6-(Methylsulfonyl)naphthalen-2-yl)propanoic Acid] | 3 ± 0.14 µM |  | 
7 | CCOc1ccc2cc(C(C)C(=O)O)ccc2c1 (racemic) [LM5753(±) 3, 2-(6-Ethoxynaphthalen-2-yl)propanoic Acid] | 2.4 ± 0.24 µM | 0.1 ± 0.0076 | 
8 | CC(C(=O)O)c1ccc2cc([S+](C)[O-])ccc2c1 (racemic) [LM5754(±) 5, 2-(6-(Methylsulfinyl)naphthalen-2-yl)propanoic Acid] | 6.3 ± 0.35 µM |  | 
9 | COc1ccc2cc([C@@H](C)C(=O)O)ccc2c1 [R-Naproxen (1a), reference compound] | 2.75 µM |  | inhibition of COX-1 activity [4, 11]: less than 20%; IC50 ([2]; Table 2): > 25 µM
10 | CCc1ccc2cc(C(C)C(=O)O)ccc2c1 (racemic) [LM5751(±) 2, 2-(6-Ethylnaphthalen-2-yl)propanoic Acid] | 1.9 ± 0.11 µM | 0.12 ± 0.0075 | 
11 | CSc1ccc2cc([C@@H](C)C(=O)O)ccc2c1 [(R)-4a, 2(R)-(6-(methylthio)naphthalen-2-yl)propanoic acid] | 4.35 ± 0.61 µM | 0.05 ± 0.0015 | 
12 | COc1ccc2cc(CC(=O)O)ccc2c1 [DesmethylNaproxen 10, 2-(6-methoxynaphthalen-2-yl)acetic acid] | 19 ± 3.7 µM | 0.65 ± 0.11 | 
13 | CSc1ccc2cc(C(C)C(=O)O)ccc2c1 (racemic) [LM5752(±) 4, 2-(6-(Methylthio)naphthalen-2-yl)propanoic Acid] | 1.5 ± 0.14 µM |  | IC50 ([3]; S-tetralol oxidation): 0.06 µM; increase in the inhibitory potency for AKR1C3 ([3]; over naproxen): 3 fold
